Results: patent publication US9458123B2, “Methods, pharmaceutical compositions, therapeutic systems, and compounds for treating B cell malignancies” (University of Rochester, priority 2012, dated 2016)
Entries after “also recorded” stand apart in the source; their conditions may differ.

Key:
Type in all cases: cell-based
[1] = tested on: OCI-Ly10 cells; test: Apoptosis of OCI-Ly10 cells (western blot, 7AAD/annexin V flow cytometry)
Experimental: The indicated ABC DLBCL cells were seeded at 3×10^5 cells/ml in 6-well plates and cultured in the presence of DMSO (0.2%, control) or various concentrations of NSC697923 for 24 hours. The live and dead cells were counted using the trypan blue exclusion assay. Shown are the means from three separate experiments. The average number of live cells in the control was set at 100. […] The levels of the indicated proteins were analyzed by western blotting. For caspase 3 detection, a mixture of an antibody for the uncleaved form and an antibody specific for the cleaved form was used. In FIG. 7C, OCI-Ly10 cells were treated as in FIG. 7A. The apoptotic cells (Annexin V positive cells) were measured by flow cytometry as described in Example 1 infra. A representative result from three independent experiments is depicted. […] BrdU was then added into the culture medium for 30 minutes before the cell-cycle distribution of the treated cells was analyzed as described in Example 1 infra. Shown are the averages from two independent experiments. […] BrdU was then added into the culture medium for 30 minutes before the cell-cycle distribution of the treated cells was analyzed as described in Example 1 infra. Shown are the averages from two independent experiments.
(§1) Apoptosis was assayed using the 7AAD/annexin V apoptosis kit (BD Bioscience) as previously described (Kim et al., “Protein Kinase C-Associated Kinase is Required for NF-kappaB Signaling and Survival in Diffuse Large B-Cell Lymphoma Cells,” Blood 111:1644-1653 (2008), which is hereby incorporated by reference in its entirety). Analysis of the cell cycle distribution of the treated cells was carried out with propidium iodide (PI) and BrdU double staining as previously described (DeRan et al., “Assessing G1-to-S-Phase Progression after Genotoxic Stress,” Methods Mol. Biol. 782:221-230 (2011) and Su et al., “DNA Damage Induces Downregulation of Histone Gene Expression Through the G1 Checkpoint Pathway,” EMBO. J. 23:1133-1143 (2004), each of which is hereby incorporated by reference in its entirety).

[2] = tested on: PMA-induced NF-κB activation in 293T-NF-luc cells; test: NF-κB luciferase reporter assay, PMA stimulation; settings: PMA 100 ng/ml, 6 hours
Experimental: In FIG. 1B, 293T-NF-luc cells were pretreated with the indicated concentrations of NSC697923 or DMSO (final concentration 0.2%; control) for 1 hour. The cells were then stimulated with PMA (100 ng/ml) or TNFα(10 ng/ml) for 6 hours, and the green fluorescence (from GFP for normalization) and luciferase activity in the cell lysate were measured. Data were expressed as the percentage activity of the control (mean+/−standard deviation (SD); n=3). […] The cells were harvested at the indicated times after stimulation, and phosphorylation of IKK and IκBα were analyzed by western blotting. Analysis of actin was used as the loading control.
FIGS. 2A-2D show the effect of NSC697923 related compounds on NF-κB activation induced by PMA. […]
HEK293T cells were transfected with the pNF-κB luciferase reporter construct, which contains four copies of the NF-κB binding site upstream of firefly luciferase gene (Moran et al., “Protein Kinase C-Associated Kinase can Activate NFkappaB in Both a Kinase-Dependent and a Kinase Independent Manner,” J. Biol. Chem. 278:21526-21533 (2003), which is hereby incorporated by reference in its entirety), together with the pBabe-puro for selection. Individual clones, selected with 1.5 μg/m puromycin, were assessed for NF-κB-luciferase reporter activation by TNFα and PMA. […]

[3] = tested on: OCI-Ly7; test: Proliferation and survival of GCB DLBCL cells (trypan blue, annexin V); settings: OCI-Ly7, 24 hours
Experimental: (§2) In FIG. 8A, the GCB DLBCL cells were plated at the indicated cell concentrations and treated with various concentrations of NSC697923 for 24 hours. The effects of NSC697923 on the growth of these cells were analyzed as described in FIG. 7A. In FIG. 8B, the cells were plated at a concentration of 4×10^5 cells/ml and treated with NSC697923 as in FIG. 8A, and the apoptotic cells were analyzed as described in FIG. 7C.
as §1

[4] = tested on: SUDHL-6; test: as above; settings: SUDHL-6, 24 hours
Experimental: as §2, §1

[5] = tested on: OCI-Ly10 cells; test: Cell cycle distribution, PI and BrdU double staining; settings: short time (5 hour) treatment
Experimental: (§3) The indicated ABC DLBCL cells were seeded at 3×10^5 cells/ml in 6-well plates and cultured in the presence of DMSO (0.2%, control) or various concentrations of NSC697923 for 24 hours. The live and dead cells were counted using the trypan blue exclusion assay. Shown are the means from three separate experiments. The average number of live cells in the control was set at 100. […] The levels of the indicated proteins were analyzed by western blotting. For caspase 3 detection, a mixture of an antibody for the uncleaved form and an antibody specific for the cleaved form was used. In FIG. 7C, OCI-Ly10 cells were treated as in FIG. 7A. The apoptotic cells (Annexin V positive cells) were measured by flow cytometry as described in Example 1 infra. A representative result from three independent experiments is depicted. […] BrdU was then added into the culture medium for 30 minutes before the cell-cycle distribution of the treated cells was analyzed as described in Example 1 infra. Shown are the averages from two independent experiments. […] BrdU was then added into the culture medium for 30 minutes before the cell-cycle distribution of the treated cells was analyzed as described in Example 1 infra. Shown are the averages from two independent experiments. […]

[6] = tested on: OCI-Ly7 cells; test: as above; settings: short time (5 hour) treatment
Experimental: as §3

## Cc1ccc(S(=O)(=O)c2ccc([N+](=O)[O-])o2)cc1 [NSC697923, 2-nitro-5-tosylfuran]
[1]; 5 hours
  PARP: cleavage of PARP
  caspase 3: activation of caspase 3
[1]; 24 hours
  annexin V-positive cells: increase in annexin V-positive cells
[2]
  PMA-induced NF-κB activation (luciferase reporter): selective inhibitory effect; also recorded: inhibits NF-κB activation induced by PMA
[3]
  proliferation and survival: inhibited proliferation and survival
[4]
  proliferation and survival: inhibited proliferation and survival
[5]
  cells in S phase: marked decrease of cells in S phase
[6]
  cells in S phase: marked decrease of cells in S phase
